Test results taken from ChEMBL document CHEMBL1201862, “PubChem BioAssay data set” (2004).
Calls of active or inactive are those of the source.

Columns and labels:
[1] = non-specific cell cytotoxicity, dose response, cytotoxicity control for PAX8 inhibitor project, plate reader, dry powder samples (AID 743021); format: functional, cell-based
Melanocortin receptor 4 = Melanocortin receptor 4 (Homo sapiens, UniProt P32245); assay: MC4R antagonist potency on cAMP, dose response, cell-based, TR-FRET, biased antagonists (AID 602298); format: functional;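 further: antagonist potency against agonist-stimulated cAMP production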
Chain of Melanocortin receptor 4 (P32245 whole entry): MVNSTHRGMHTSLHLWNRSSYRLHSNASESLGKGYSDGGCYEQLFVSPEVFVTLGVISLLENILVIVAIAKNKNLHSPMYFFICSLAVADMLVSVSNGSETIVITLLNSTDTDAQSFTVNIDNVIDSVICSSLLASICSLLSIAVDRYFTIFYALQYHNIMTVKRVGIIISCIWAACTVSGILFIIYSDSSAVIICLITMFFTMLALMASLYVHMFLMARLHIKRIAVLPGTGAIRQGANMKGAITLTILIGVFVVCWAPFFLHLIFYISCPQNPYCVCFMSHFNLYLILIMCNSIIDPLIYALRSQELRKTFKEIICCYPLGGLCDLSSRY

[2] = target: T1, Replicative DNA helicase DnaB (Mycobacterium tuberculosis, UniProt P9WMR3); assay: DnaB intein splicing inhibitors, dose response, biochemical, cell-free fluorescence (AID 449749); format: functional
T1 sequence (P9WMR3 whole entry): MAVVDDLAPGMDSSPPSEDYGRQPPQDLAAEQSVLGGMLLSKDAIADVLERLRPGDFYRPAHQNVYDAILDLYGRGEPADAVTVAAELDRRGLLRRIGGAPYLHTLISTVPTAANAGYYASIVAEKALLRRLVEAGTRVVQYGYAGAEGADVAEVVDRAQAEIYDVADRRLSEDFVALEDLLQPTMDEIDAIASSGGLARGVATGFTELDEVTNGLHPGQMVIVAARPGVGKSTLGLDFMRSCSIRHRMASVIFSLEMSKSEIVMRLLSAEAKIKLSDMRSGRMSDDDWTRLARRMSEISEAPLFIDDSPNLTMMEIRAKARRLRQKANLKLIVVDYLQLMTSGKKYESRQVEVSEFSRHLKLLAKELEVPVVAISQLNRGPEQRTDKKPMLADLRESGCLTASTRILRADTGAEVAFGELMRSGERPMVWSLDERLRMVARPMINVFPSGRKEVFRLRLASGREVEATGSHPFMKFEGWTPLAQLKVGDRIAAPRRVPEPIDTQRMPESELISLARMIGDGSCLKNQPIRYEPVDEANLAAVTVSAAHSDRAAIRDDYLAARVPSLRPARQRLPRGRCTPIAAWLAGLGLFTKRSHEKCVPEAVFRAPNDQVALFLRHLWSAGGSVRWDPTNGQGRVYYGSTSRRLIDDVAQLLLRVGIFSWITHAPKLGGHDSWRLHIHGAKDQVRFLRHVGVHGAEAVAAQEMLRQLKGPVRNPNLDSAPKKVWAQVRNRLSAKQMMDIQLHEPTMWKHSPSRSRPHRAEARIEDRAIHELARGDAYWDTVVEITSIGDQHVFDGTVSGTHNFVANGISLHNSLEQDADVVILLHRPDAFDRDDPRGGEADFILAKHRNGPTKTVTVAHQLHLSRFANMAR

[3] = inhibitors of SNCA 5'UTR-driven reporter translation, confirmation, H4 neuroglioma cells, luminescence (AID 1988); format: functional, cell-based
INS1 = assay: beta cell apoptosis inhibitors, cytokine rescue, dose response, luminescence, retest (AID 449756); format: functional, cell-based; settings: Rattus norvegicus;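 further: cell death triggered by IL-1 beta plus TNF-alpha plus IFN-gamma mixture; protective hits raise ATP signal compared with cytokine alone wells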
[4] = target: T2, Sentrin-specific protease 6 (Homo sapiens, UniProt Q9GZR1); format: functional;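 further: Luminescence-based dose-response confirmatory assay of SENP6 inhibition, following up an ultra-high-throughput screen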
T2 sequence (Q9GZR1 whole entry): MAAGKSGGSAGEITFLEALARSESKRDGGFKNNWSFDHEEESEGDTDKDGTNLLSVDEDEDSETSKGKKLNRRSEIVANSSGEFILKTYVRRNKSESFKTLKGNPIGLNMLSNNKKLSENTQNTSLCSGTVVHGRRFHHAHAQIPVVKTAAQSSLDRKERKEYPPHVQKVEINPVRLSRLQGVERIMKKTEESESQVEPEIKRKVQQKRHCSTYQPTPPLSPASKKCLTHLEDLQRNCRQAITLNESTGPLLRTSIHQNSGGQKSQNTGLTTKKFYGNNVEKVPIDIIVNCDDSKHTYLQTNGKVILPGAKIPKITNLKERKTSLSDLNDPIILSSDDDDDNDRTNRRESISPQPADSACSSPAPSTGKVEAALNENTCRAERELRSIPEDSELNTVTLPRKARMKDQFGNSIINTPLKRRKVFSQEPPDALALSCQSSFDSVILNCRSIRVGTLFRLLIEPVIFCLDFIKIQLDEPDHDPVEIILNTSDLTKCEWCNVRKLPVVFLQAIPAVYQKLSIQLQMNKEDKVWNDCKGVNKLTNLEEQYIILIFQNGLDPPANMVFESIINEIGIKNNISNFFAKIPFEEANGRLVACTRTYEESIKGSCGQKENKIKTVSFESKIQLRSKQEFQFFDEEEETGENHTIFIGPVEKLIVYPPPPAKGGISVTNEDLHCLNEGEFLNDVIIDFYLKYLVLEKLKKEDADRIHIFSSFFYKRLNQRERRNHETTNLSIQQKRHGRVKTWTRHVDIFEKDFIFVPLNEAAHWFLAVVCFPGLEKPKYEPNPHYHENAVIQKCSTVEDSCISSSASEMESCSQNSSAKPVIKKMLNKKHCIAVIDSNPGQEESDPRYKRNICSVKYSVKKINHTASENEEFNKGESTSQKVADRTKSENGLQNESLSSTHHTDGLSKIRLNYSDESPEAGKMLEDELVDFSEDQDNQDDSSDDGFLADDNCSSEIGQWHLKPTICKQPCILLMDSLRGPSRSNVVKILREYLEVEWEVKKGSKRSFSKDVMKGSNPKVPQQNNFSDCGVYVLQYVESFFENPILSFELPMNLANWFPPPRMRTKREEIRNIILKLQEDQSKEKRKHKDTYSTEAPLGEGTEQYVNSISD

[5] = target: T3, RNA-binding protein pos-1 (Caenorhabditis elegans, UniProt G5EF15); assay: inhibitors of POS-1/mex-3 RNA binding, dose response, biochemical, fluorescence polarization (AID 1964);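 further: purified POS-1 fused to maltose binding protein made in E. coli; potency of compounds blocking POS-1 binding to fluorescent RNA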
T3 sequence (G5EF15 whole entry): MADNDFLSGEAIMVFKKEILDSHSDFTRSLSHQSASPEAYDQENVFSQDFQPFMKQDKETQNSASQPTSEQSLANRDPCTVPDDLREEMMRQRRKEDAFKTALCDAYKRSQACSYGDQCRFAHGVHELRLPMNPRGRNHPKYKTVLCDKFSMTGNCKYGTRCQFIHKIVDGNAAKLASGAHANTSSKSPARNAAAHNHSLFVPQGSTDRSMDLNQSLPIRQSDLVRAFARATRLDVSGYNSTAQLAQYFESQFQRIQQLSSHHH

Compound | AC50 [1] | IC50 (Melanocortin receptor 4) | AC50 [2] | EC50 [3] | AC50 (INS1) | IC50 [4] | EC50 [5]
CCC1CCCCN1S(=O)(=O)c1ccc(NC(=O)c2nc(S(C)(=O)=O)ncc2Cl)cc1 (centres undefined) | 20.8 µM (active) | 1.17 µM (active) | 1.43 µM (active) | 9.69 µM (active) | 5.24 µM (active) |  | 
CCCC[n+]1ccn(C2=C([N-]S(=O)(=O)c3ccc(Cl)cc3)C(=O)c3ccccc3C2=O)c1 |  |  |  |  |  | 12.4 µM (active) | > 300 µM (inconclusive)
CC(=O)c1cccc2c1N=C(c1[nH]c3ccccc3c1O)C2=O |  |  | 3.1 µM (active) |  |  | 13.2 µM (active) | 
